Series [1] deals with TEADs. Briefly: TEAD-specific 8×GTIIC-luciferase reporter assay. The format is cell-based. As to conditions: for inhibition at 10 µM: 8×GTIIC-luciferase, read-out: Luciferase reporter assay inhibitory rate. As to the method: A series of compounds featuring a chloromethyl ketone moiety were synthesized (Schemes 1-4). The inhibitory rate of this series of compounds was tested using 8×GTIIC-luciferase reporter assay at 10 μM.
Next, the inhibition of TEAD transcription activity of compounds was tested varying the dosage using the 8×GTIIC-luciferase reporter assay. […] The aim was to determine whether its inhibition of TEAD transcription can lead to downregulation of the YAP-TEAD target genes. CTGF is one of the best characterized (bona fide) target gene of YAP and TAZ.
To further investigate the mechanism of the inhibitory effect of compounds in Huh7 cells, TEADs specific luciferase reporter assays were performed with compounds 22 and 12 at several concentrations. […] TEAD downstream gene expression patterns were evaluated in liver cancer cells Huh7, which has been evidenced with relative high expression of YAP and TEAD2.
HEK 293T cells were plated at 2×10^4 cells/well in a 96 well microplate and were transfected with 50 ng of 8×GTIIC-luciferase plasmid (Addgene #34615) and 0.5 ng of pRL-CMV (Promega #E226A) by using lipofectamine 3000 (Life Technologies #L3000). The 8×GTIIc-luciferase reporter is a Yap/Taz-activity reporter containing eight TEAD consensus binding sequences. After 6 h, transfected cells were treated with various concentrations of compounds or DMSO control. Luciferase signals were measured using the Dual Luciferase Reporter Assay System (Promega, E1960) according to the manufacturer's instructions. Experiments were performed in triplicate and repeated at least three times.
(In general: A reporter such as luciferase makes a cellular process visible.)

Series [2] has as its system AML12 cells. Briefly: AML12 normal liver cell growth inhibition (CCK8). It is filed as cell-based. Particulars: for Inhibitory rate, AML12 (inhibitory percentage of AML12 cell growth): 10 μM, 3 days.
Series [3] relates to Huh7 cells. Briefly: Huh7 cell proliferation assay (CCK8). Particulars: Homo sapiens. It is filed as cell-based, human. On the procedure: CCK8 assay kit was used to determine antiproliferative activity of synthesized compounds against Huh7 cell line. First, Huh7 cells were seeded into 96-well plates at a density of 3000 cells/well and incubated overnight. Cells were then co-incubated with compounds at 8 concentrations for 72 h. Then, the cell proliferation was determined by the CCK8 kit according to the standard protocol. Experiments were performed in triplicate.

Setting [4] is: Huh-7, 72 h, 3 days, CCK8, mean ± SD of three independent experiments, read-out: Cell proliferation assay IC50, Huh7.

Like-named read-outs stand apart in the source and are kept apart here.

Take `O=C(CCl)c1c[nH]c2cc(Cl)c(OCc3ccccc3)cc12` [Compound 1, 1-(5-(benzyloxy)-6-chloro-1H-indol-3-yl)-2-chloroethan-1-one]: in series [1], the inhibition at 10 µM was 74.6%. The “Inhibitory rate, AML12 (inhibitory percentage of AML12 cell growth)” value in series [2] came out at 36.2%. The IC50 in series [3] (setting [4]) stood at 2.7 ± 0.2 µM.
For `O=C(CCl)c1c[nH]c2cc(Cl)c(OCc3cccc4ccccc34)cc12` [Compound 3, 2-chloro-1-(6-chloro-5-(naphthalen-1-ylmethoxy)-1H-indol-3-yl)ethan-1-one], in series [1], the inhibition at 10 µM came out at 69.4%. Besides, in series [2], the “Inhibitory rate, AML12 (inhibitory percentage of AML12 cell growth)” value worked out at 50.3%. Moreover, the IC50 in series [3] (setting [4]) is 1.6 ± 0.3 µM.
Take `COc1cc2[nH]cc(C(=O)CCl)c2cc1OCc1ccccc1` [Compound 4, 1-(5-(benzyloxy)-6-methoxy-1H-indol-3-yl)-2-chloroethan-1-one]: in series [1], the inhibition at 10 µM came out at 53.7%. Moreover, the “Inhibitory rate, AML12 (inhibitory percentage of AML12 cell growth)” value in series [2] came out at 46.1%. Also, the IC50 in series [3] (setting [4]) was found to be 3.8 ± 0.4 µM.
As to `COc1cc2[nH]cc(C(=O)CCl)c2cc1OCc1ccc2ccccc2c1` [Compound 5, 2-chloro-1-(6-methoxy-5-(naphthalen-2-ylmethoxy)-1H-indol-3-yl)ethan-1-one], in series [1], the inhibition at 10 µM is 93.9%. Also, in series [1] (varying dosage, FIGS. 3A-3B), the “TEAD transcription inhibition, luciferase reporter” value is reported as “potent inhibition activity”. In series [2], the “Toxicity towards normal liver cell line AML12” value is recorded as “high toxicity” and the “Inhibitory rate, AML12 (inhibitory percentage of AML12 cell growth)” value amounted to 77.4%. Moreover, the IC50 in series [3] (setting [4]) was found to be 2.4 ± 0.5 µM.
For the compound `COc1cc2[nH]cc(C(=O)CCl)c2cc1OCc1cccc2ccccc12` [Compound 6, 2-chloro-1-(6-methoxy-5-(naphthalen-1-ylmethoxy)-1H-indol-3-yl)ethan-1-one], in series [1], the inhibition at 10 µM was found to be 64.5%. The “Inhibitory rate, AML12 (inhibitory percentage of AML12 cell growth)” value in series [2] was found to be 62.1%. The IC50 in series [3] (setting [4]) came to 2.5 ± 0.8 µM.
For the compound `O=C(CCl)c1c[nH]c2ccc(OCc3ccc4ccccc4c3)cc12` [Compound 7, 2-chloro-1-(5-(naphthalen-2-ylmethoxy)-1H-indol-3-yl)ethan-1-one], the inhibition at 10 µM in series [1] was determined as 5.3%. The IC50 in series [3] (setting [4]) was greater than 20 µM.
In the same order, the values of `O=C(CCl)c1c[nH]c2ccc(OCc3ccccc3)cc12` [Compound 8, 1-(5-(benzyloxy)-1H-indol-3-yl)-2-chloroethan-1-one] are 20.5% and 10.5 ± 0.9 µM.
`C=CC(=O)NCc1c[nH]c2cc(Cl)c(OCc3ccc4ccccc4c3)cc12` [Compound 9, N-((6-chloro-5-(naphthalen-2-ylmethoxy)-1H-indol-3-yl)methyl)acrylamide]: the inhibition at 10 µM in series [1] turned out to be 1.5%. Further, the “Inhibitory rate, AML12 (inhibitory percentage of AML12 cell growth)” value in series [2] is recorded as 0%. Further, the IC50 in series [3] (setting [4]) was 30.2 ± 2.5 µM.
In the same order, the values of `C=CC(=O)NCc1c[nH]c2cc(Cl)c(OCc3cccc4ccccc34)cc12` [Compound 10, N-((6-chloro-5-(naphthalen-1-ylmethoxy)-1H-indol-3-yl)methyl)acrylamide] are 10.6%, 0% and 14.4 ± 1.2 µM.
For `C=CC(=O)NCc1c[nH]c2cc(Cl)c(OCc3ccccc3)cc12` [Compound 11, N-((5-(benzyloxy)-6-chloro-1H-indol-3-yl)methyl)acrylamide], the “Inhibitory rate, AML12 (inhibitory percentage of AML12 cell growth)” value in series [2] worked out at 0%. In addition, in series [3] (setting [4]), the IC50 was greater than 50 µM.
As to `O=C(CCl)NCc1c[nH]c2cc(Cl)c(OCc3ccc4ccccc4c3)cc12` [Compound 13, 2-chloro-N-((6-chloro-5-(naphthalen-2-ylmethoxy)-1H-indol-3-yl)methyl)acetamide], the inhibition at 10 µM in series [1] was 67.4%. Also, in series [2], the “Inhibitory rate, AML12 (inhibitory percentage of AML12 cell growth)” value was found to be 43.4%. Besides, the IC50 in series [3] (setting [4]) was found to be 5.7 ± 1.3 µM.
Take `O=C(CCl)NCc1c[nH]c2cc(Cl)c(OCc3cccc4ccccc34)cc12` [Compound 14, 2-chloro-N-((6-chloro-5-(naphthalen-1-ylmethoxy)-1H-indol-3-yl)methyl)acetamide]: in series [1], the inhibition at 10 µM worked out at 81.5%. The “Toxicity towards normal liver cell line AML12” value in series [2] is given as “significant cytotoxicity”. The “Inhibitory rate, AML12 (inhibitory percentage of AML12 cell growth)” value in series [2] is on record as 54.1%. Also, the IC50 in series [3] (setting [4]) amounted to 0.8 ± 0.2 µM; in series [3] (Huh-7, Table 3 column is in μM, read-out: Huh7 cell growth inhibition / proliferation IC50), 0.8 µM.
Regarding `O=C(CCl)NCc1c[nH]c2cc(Cl)c(OCc3cccc(C(F)(F)F)c3)cc12` [Compound 15, 2-chloro-N-((6-chloro-5-((3-(trifluoromethyl)benzyl)oxy)-1H-indol-3-yl)methyl) acetamide], in series [1], the inhibition at 10 µM worked out at 47.9%. In addition, the “Inhibitory rate, AML12 (inhibitory percentage of AML12 cell growth)” value in series [2] was 41.1%. Besides, the IC50 in series [3] (setting [4]) was 8.3 ± 0.8 µM.
For the compound `N#C/C(=C\c1c[nH]c2cc(Cl)c(OCc3ccccc3)cc12)C(N)=O` [Compound 16, (E)-3-(5-(benzyloxy)-6-chloro-1H-indol-3-yl)-2-cyanoacrylamide], in series [2], the “Inhibitory rate, AML12 (inhibitory percentage of AML12 cell growth)” value came out at 0%. The IC50 in series [3] (setting [4]) was greater than 50 µM.
Consider `N#C/C(=C\c1c[nH]c2cc(Cl)c(OCc3ccc4ccccc4c3)cc12)C(N)=O` [Compound 17, (E)-3-(6-chloro-5-(naphthalen-2-ylmethoxy)-1H-indol-3-yl)-2-cyanoacrylamide], for which the inhibition at 10 µM in series [1] is 47.3%. The “Inhibitory rate, AML12 (inhibitory percentage of AML12 cell growth)” value in series [2] worked out at 60.2%. Besides, the IC50 in series [3] (setting [4]) was 4.1 ± 0.6 µM.
As for `N#C/C(=C\c1c[nH]c2cc(Cl)c(OCc3cccc4ccccc34)cc12)C(N)=O` [Compound 18, (E)-3-(6-chloro-5-(naphthalen-1-ylmethoxy)-1H-indol-3-yl)-2-cyanoacrylamide], in series [1], the inhibition at 10 µM amounted to 51.3%. Further, in series [2], the “Inhibitory rate, AML12 (inhibitory percentage of AML12 cell growth)” value came to 70.3%.
As for `N#C/C(=C\c1c[nH]c2cc(Cl)c(OCC3CCC(F)(F)CC3)cc12)C(N)=O` [Compound 19, (E)-3-(6-chloro-5-((4,4-difluorocyclohexyl)methoxy)-1H-indol-3-yl)-2-cyanoacrylamide], the inhibition at 10 µM in series [1] came to 60.1%. Further, in series [2], the “Inhibitory rate, AML12 (inhibitory percentage of AML12 cell growth)” value worked out at 30.1%. Also, in series [3] (setting [4]), the IC50 was 5.3 ± 0.5 µM.
Regarding `N#C/C(=C\c1c[nH]c2cc(Cl)c(OCc3ccc4ccccc4n3)cc12)C(N)=O` [Compound 20, (E)-3-(6-chloro-5-(quinolin-2-ylmethoxy)-1H-indol-3-yl)-2-cyanoacrylamide], the “Inhibitory rate, AML12 (inhibitory percentage of AML12 cell growth)” value in series [2] is 0%. Besides, in series [3] (setting [4]), the IC50 was found to be 68.7 ± 5.4 µM.
For `N#C/C(=C\c1c[nH]c2cc(Cl)c(OCc3cccc(C(F)(F)F)c3)cc12)C(N)=O` [Compound 21, 3-(6-chloro-5-((3-(trifluoromethyl)benzyl)oxy)-1H-indol-3-yl)-2-cyanoacrylamide], the inhibition at 10 µM in series [1] stood at 59.7%. Also, the “Inhibitory rate, AML12 (inhibitory percentage of AML12 cell growth)” value in series [2] is given as 97.1%.
For `O=C(CCl)c1c[nH]c2cc(Cl)c(OCc3ccc(C(F)(F)F)cc3)cc12` [Compound 23, 2-chloro-1-(6-chloro-5-((4-(trifluoromethyl)benzyl)oxy)-1H-indol-3-yl)ethan-1-one], the IC50 in series [3] (setting [4]) amounted to 16.9 µM.
Still for that read-out and setting: as for `O=C(CCl)c1c[nH]c2cc(Cl)c(OCc3ccc(C(F)(F)F)c(F)c3)cc12` [Compound 24, 2-chloro-1-(6-chloro-5-((3-fluoro-4-(trifluoromethyl)benzyl)oxy)-1H-indol-3-yl)ethan-1-one], the figure is 1.8 µM.

The values are drawn from US20260337177A1, “TEAD CORE INHIBITORS FOR CANCER THERAPEUTICS” (University of Florida Research Foundation, Incorporated, priority 2023, published 2026).
